Values of other authors as cited in patent US20230285483A1, “TINCTURE CONTAINING CANNABINOIDS, METHOD OF USING, AND METHOD OF MAKING THE SAME” (priority 2022, published 2023).

Columns and labels:
coronavirus = conditions: study by researchers at Oregon State University
[1] = target: spike proteins found on the virus (Severe acute respiratory syndrome coronavirus 2, UniProt P0DTC2); conditions: study by researchers at Oregon State University

SMILES | blocking of a step the pathogen uses to infect people (coronavirus) | binding to spike proteins found on the virus [1]
C=C(C)[C@@H]1CCC(C)=C[C@H]1c1c(O)cc(CCCCC)c(C(=O)O)c1O [CBDa, cannabidiolic acid] | blocked a step the pathogen uses to infect people | bind to spike proteins
CCCCCc1cc(O)c(C/C=C(\C)CCC=C(C)C)c(O)c1C(=O)O [CBGa, cannabigerolic acid] | blocked a step the pathogen uses to infect people | bind to spike proteins
